Assay results as given in ChEMBL document CHEMBL3885881, “DrugMatrix”.

Species on record: Rattus norvegicus
Test: DrugMatrix - Regimen: Daily Repeat
Assay type: toxicity, organism-based, Sprague-Dawley
Design: regimen Daily Repeat, gender Male, age 6-8 weeks
Conditions: in vivo, po, route oral GAVAGE, vehicle .5 % CMC; for ABSOLUTE BASOPHIL / ABSOLUTE EOSINOPHIL / ABSOLUTE LYMPHOCYTE / ABSOLUTE MONOCYTE / ABSOLUTE SEGMENTED NEUTROPHIL / BASOPHIL / EOSINOPHIL / ERYTHROCYTE COUNT / HEMATOCRIT / HEMOGLOBIN / LEUKOCYTE COUNT / LYMPHOCYTE / MEAN CORPUSCULAR HEMOGLOBIN / MEAN CORPUSCULAR HEMOGLOBIN CONCENTRATION / MEAN CORPUSCULAR VOLUME / MONOCYTE / NEUTROPHIL / NUCLEATED RED BLOOD CELLS / PLATELET COUNT: tissue Blood; for ALANINE AMINOTRANSFERASE / ALBUMIN / ALKALINE PHOSPHATASE / ASPARTATE AMINOTRANSFERASE / BLOOD UREA NITROGEN / CARBON DIOXIDE / CHLORIDE / CHOLESTEROL / CREATINE PHOSPHOKINASE / CREATININE / GLUCOSE / LACTATE DEHYDROGENASE / LIPASE / PHOSPHORUS / POTASSIUM / SODIUM / TOTAL BILIRUBIN / TOTAL PROTEIN / URIC ACID: tissue Plasma
[1] = 80 mg/kg, 72 h, dose level Low, time 3 day
[2] = 80 mg/kg, 120 h, dose level Low, time 5 day
[3] = 1500 mg/kg, 72 h, dose level High, time 3 day
[4] = 1500 mg/kg, 120 h, dose level High, time 5 day

Cc1cc(=O)n(-c2ccccc2)n1C [ANTIPYRINE]
ABSOLUTE BASOPHIL [1]: 0 CELLS/uL | ABSOLUTE EOSINOPHIL [1]: 91.33 CELLS/uL | ABSOLUTE LYMPHOCYTE [1]: 12252 CELLS/uL | ABSOLUTE MONOCYTE [1]: 196 CELLS/uL | ABSOLUTE SEGMENTED NEUTROPHIL [1]: 1827.33 CELLS/uL | BASOPHIL [1]: 0% | EOSINOPHIL [1]: 0.67% | ERYTHROCYTE COUNT [1]: 5.35 x10E6/uL | HEMATOCRIT [1]: 34.23% | HEMOGLOBIN [1]: 13.5 G/DL | LEUKOCYTE COUNT [1]: 14.37 x10E3/uL | LYMPHOCYTE [1]: 86% | MEAN CORPUSCULAR HEMOGLOBIN [1]: 25.27 pg | MEAN CORPUSCULAR HEMOGLOBIN CONCENTRATION [1]: 39.43 G/DL | MEAN CORPUSCULAR VOLUME [1]: 64 fL | MONOCYTE [1]: 1.33% | NEUTROPHIL [1]: 12% | NUCLEATED RED BLOOD CELLS [1]: 0.33 /100WBC | PLATELET COUNT [1]: 1283.67 x10E3/uL | ALANINE AMINOTRANSFERASE [1]: 47.67 u/L | ALBUMIN [1]: 4.47 G/DL | ALKALINE PHOSPHATASE [1]: 419 u/L | ASPARTATE AMINOTRANSFERASE [1]: 82 u/L | BLOOD UREA NITROGEN [1]: 18 mg/dL | CARBON DIOXIDE [1]: 23.33 mmol/L | CHLORIDE [1]: 103.67 MEQ/L | CHOLESTEROL [1]: 77 mg/dL | CREATINE PHOSPHOKINASE [1]: 225 u/L | CREATININE [1]: 0.22 mg/dL | GLUCOSE [1]: 163 mg/dL | LACTATE DEHYDROGENASE [1]: 184 u/L | LIPASE [1]: 9.67 u/L | PHOSPHORUS [1]: 13.9 mg/dL | POTASSIUM [1]: 7.07 MEQ/L | SODIUM [1]: 147.1 MEQ/L | TOTAL BILIRUBIN [1]: 0.27 mg/dL | TOTAL PROTEIN [1]: 6.23 G/DL | URIC ACID [1]: 1.77 mg/dL | ABSOLUTE BASOPHIL [2]: 0 CELLS/uL | ABSOLUTE EOSINOPHIL [2]: 104 CELLS/uL | ABSOLUTE LYMPHOCYTE [2]: 12025 CELLS/uL | ABSOLUTE MONOCYTE [2]: 0 CELLS/uL | ABSOLUTE SEGMENTED NEUTROPHIL [2]: 871 CELLS/uL | BASOPHIL [2]: 0% | EOSINOPHIL [2]: 0.67% | ERYTHROCYTE COUNT [2]: 5.47 x10E6/uL | HEMATOCRIT [2]: 35.87% | HEMOGLOBIN [2]: 13.93 G/DL | LEUKOCYTE COUNT [2]: 13 x10E3/uL | LYMPHOCYTE [2]: 92.33% | MEAN CORPUSCULAR HEMOGLOBIN [2]: 25.53 pg | MEAN CORPUSCULAR HEMOGLOBIN CONCENTRATION [2]: 38.9 G/DL | MEAN CORPUSCULAR VOLUME [2]: 65.6 fL | MONOCYTE [2]: 0% | NEUTROPHIL [2]: 7% | NUCLEATED RED BLOOD CELLS [2]: 0.33 /100WBC | PLATELET COUNT [2]: 1274.33 x10E3/uL | ALANINE AMINOTRANSFERASE [2]: 48 u/L | ALBUMIN [2]: 4.27 G/DL | ALKALINE PHOSPHATASE [2]: 367.33 u/L | ASPARTATE AMINOTRANSFERASE [2]: 83 u/L | BLOOD UREA NITROGEN [2]: 15.67 mg/dL | CARBON DIOXIDE [2]: 26.33 mmol/L | CHLORIDE [2]: 101 MEQ/L | CHOLESTEROL [2]: 76.33 mg/dL | CREATINE PHOSPHOKINASE [2]: 353 u/L | CREATININE [2]: 0.16 mg/dL | GLUCOSE [2]: 179.67 mg/dL | LACTATE DEHYDROGENASE [2]: 147.67 u/L | LIPASE [2]: 8.67 u/L | PHOSPHORUS [2]: 12.13 mg/dL | POTASSIUM [2]: 7.07 MEQ/L | SODIUM [2]: 141.77 MEQ/L | TOTAL BILIRUBIN [2]: 0.13 mg/dL | TOTAL PROTEIN [2]: 5.97 G/DL | URIC ACID [2]: 2.27 mg/dL | ABSOLUTE BASOPHIL [3]: 0 CELLS/uL | ABSOLUTE EOSINOPHIL [3]: 55 CELLS/uL | ABSOLUTE LYMPHOCYTE [3]: 14551 CELLS/uL | ABSOLUTE MONOCYTE [3]: 220 CELLS/uL | ABSOLUTE SEGMENTED NEUTROPHIL [3]: 1207.33 CELLS/uL | BASOPHIL [3]: 0% | EOSINOPHIL [3]: 0.33% | ERYTHROCYTE COUNT [3]: 5.53 x10E6/uL | HEMATOCRIT [3]: 35.67% | HEMOGLOBIN [3]: 14.13 G/DL | LEUKOCYTE COUNT [3]: 16.03 x10E3/uL | LYMPHOCYTE [3]: 90.67% | MEAN CORPUSCULAR HEMOGLOBIN [3]: 25.6 pg | MEAN CORPUSCULAR HEMOGLOBIN CONCENTRATION [3]: 39.63 G/DL | MEAN CORPUSCULAR VOLUME [3]: 64.5 fL | MONOCYTE [3]: 1.33% | NEUTROPHIL [3]: 7.67% | NUCLEATED RED BLOOD CELLS [3]: 0.33 /100WBC | PLATELET COUNT [3]: 1257 x10E3/uL | ALANINE AMINOTRANSFERASE [3]: 71 u/L | ALBUMIN [3]: 4.27 G/DL | ALKALINE PHOSPHATASE [3]: 404.67 u/L | ASPARTATE AMINOTRANSFERASE [3]: 85 u/L | BLOOD UREA NITROGEN [3]: 14 mg/dL | CARBON DIOXIDE [3]: 37 mmol/L | CHLORIDE [3]: 99.33 MEQ/L | CHOLESTEROL [3]: 76 mg/dL | CREATINE PHOSPHOKINASE [3]: 183.33 u/L | CREATININE [3]: 0.17 mg/dL | GLUCOSE [3]: 141.67 mg/dL | LACTATE DEHYDROGENASE [3]: 103.33 u/L | LIPASE [3]: 9.67 u/L | PHOSPHORUS [3]: 10.07 mg/dL | POTASSIUM [3]: 6.57 MEQ/L | SODIUM [3]: 143.77 MEQ/L | TOTAL BILIRUBIN [3]: 0.2 mg/dL | TOTAL PROTEIN [3]: 5.83 G/DL | URIC ACID [3]: 1.53 mg/dL | ABSOLUTE BASOPHIL [4]: 0 CELLS/uL | ABSOLUTE EOSINOPHIL [4]: 0 CELLS/uL | ABSOLUTE LYMPHOCYTE [4]: 19193.67 CELLS/uL | ABSOLUTE MONOCYTE [4]: 792.67 CELLS/uL | ABSOLUTE SEGMENTED NEUTROPHIL [4]: 3680.33 CELLS/uL | BASOPHIL [4]: 0% | EOSINOPHIL [4]: 0% | ERYTHROCYTE COUNT [4]: 5.35 x10E6/uL | HEMATOCRIT [4]: 35.1% | HEMOGLOBIN [4]: 14.13 G/DL | LEUKOCYTE COUNT [4]: 23.67 x10E3/uL | LYMPHOCYTE [4]: 81.33% | MEAN CORPUSCULAR HEMOGLOBIN [4]: 26.43 pg | MEAN CORPUSCULAR HEMOGLOBIN CONCENTRATION [4]: 40.27 G/DL | MEAN CORPUSCULAR VOLUME [4]: 65.7 fL | MONOCYTE [4]: 3.67% | NEUTROPHIL [4]: 15% | NUCLEATED RED BLOOD CELLS [4]: 0.33 /100WBC | PLATELET COUNT [4]: 1282 x10E3/uL | ALANINE AMINOTRANSFERASE [4]: 57.67 u/L | ALBUMIN [4]: 4.27 G/DL | ALKALINE PHOSPHATASE [4]: 338.33 u/L | ASPARTATE AMINOTRANSFERASE [4]: 86 u/L | BLOOD UREA NITROGEN [4]: 16.33 mg/dL | CARBON DIOXIDE [4]: 36 mmol/L | CHLORIDE [4]: 103 MEQ/L | CHOLESTEROL [4]: 72.33 mg/dL | CREATINE PHOSPHOKINASE [4]: 309 u/L | CREATININE [4]: 0.24 mg/dL | GLUCOSE [4]: 135 mg/dL | LACTATE DEHYDROGENASE [4]: 379.67 u/L | LIPASE [4]: 10 u/L | PHOSPHORUS [4]: 10.8 mg/dL | POTASSIUM [4]: 7.71 MEQ/L | SODIUM [4]: 141.33 MEQ/L | TOTAL BILIRUBIN [4]: 0.2 mg/dL | TOTAL PROTEIN [4]: 5.9 G/DL | URIC ACID [4]: 1.2 mg/dL
